From patent publication US20260007802A1, “ANNEALED MICROGEL PARTICLE SYSTEMS AND METHODS” (Tempo Therapeutics, Inc., priority 2023, published 2026) come the findings set out here.

Series [1] can be described thus: Chemical annealing kinetics, elastic modulus over time (Instron). It is filed as physicochemical. As to the method: In the rat intradermal study (see Example 2), MAP was annealed using 0.1 mM PETMA (Pentaerythrivol tetras(2-mercaptoacetate)), a 4-thiol containing crosslinker. The thiol groups react with the free vinyl sulfones on the microgel particles in a thiol-ene Michael addition reaction. […] The optimization of the chemical annealing was performed with formulation 1-3. […] Briefly, gels initially formulated at a volume fraction of 100% was thoroughly mixed with the crosslinkers (0.1-0.2 mM) at different pHs, which led to diluting gels to 80%. The elastic modulus was measured at different time points using Instron.
Then, the different HA-MAP formulations were annealed using the selected annealing agent at 0.2 mM at pH 7.4. […] Elastic modulus over time was measured using Instron.
The final volume fraction for annealing was 80% for all annealing conditions.

The next series has as its system 3T3 fibroblasts. As to the kind of experiment: In vitro cytocompatibility, WST-8 proliferation assay (Example 2). The series is classed as cell-based, mouse. The note with it: WST-8, days 1, 3 and 6. As to the method: Prior to animal experiments, formulations 1-3 and formulations 4-5 were tested (all in the presence and absence of annealing chemistry) for cytocompatibility using immortalized and primary cells. The WST-8 proliferation assay was used to assess cell viability and compare to positive (vehicle) and negative (cytotoxic agent) controls. The formulations used are listed in Table 5 below, along with their characteristics.
In vitro experiments were performed in well plate format. Cells were grown in culture media in adherent culture, and then exposed to either (i) hydrogel microgel particle suspensions, (ii) hydrogel microgel particle suspensions actively undergoing the annealing process, or (iii) the reaction conditions of the annealing process including soluble components but in the absence of hydrogel microgel particles. After exposure, cells were grown in adherent culture for […], measuring proliferation at 1, 3, and 6 days after exposure.
3T3 fibroblasts were grown to 90% confluent and then suspended in DMEM at 2.5×10^6 cells/mL. Then, 2 μL of cell suspension was mixed with MAP (see Table 1 for description of the different formulations tested for cytocompatibility) and added to a 96-well plate. […] Cell viability was then measured at 450 nm using WST-8 kit.
(In general: Tetrazolium assays rely on reduction of a dye to a coloured formazan, in cell work by metabolically active cells.)

`O=C(CS)OCC(COC(=O)CS)(COC(=O)CS)COC(=O)CS` [PETMA, Pentaerythritol tetrakis(2-mercaptoacetate)]: the “time to full annealing” value in series [1] (annealing agent with formulations 1-3 gels, pH 7.4) is not above 5 min. In series [1] (pH 6.5), the “time before it is annealed” value is on record as less than 10 min. Besides, the “cytotoxic effect on cell viability” value in the series with 3T3 fibroblasts is given as “dose dependent cytotoxic effect”.

Turning to `CCN(CC)CC(=O)Nc1c(C)cccc1C` [lidocaine], the “effect on kinetic of annealing and final stiffness” value in series [1] (0.3% wt, three batches of 4a, 0.2 mM PEG-dithiol 3.4 kDa, pH 7.4) was “reduces the final stiffness after annealing and slightly slows down the reaction”.
